The source of these data is ChEMBL document CHEMBL5370609, “Amidine-Based Cationic Conjugated Oligoelectrolytes with Antimicrobial Activity against Pseudomonas aeruginosa Biofilms” (J Med Chem, 2023).

Structures are written as SMILES. Converted amounts (≈) assume the structure as drawn. The source made the active and inactive calls. A value given as a limit tells only on which side of the number the result lay.

The nature of series [1]: Cytotoxicity against human HepG2 cells assessed as reduction in cell viability incubated for 24 hrs by MTT assay. The class given is toxicity, cell-based. On the technique in general: Formazan colour is commonly taken as a measure of viable cells.
The nature of series [2]: Selectivity index, IC50 for cytotoxicity against human HepG2 cells to MIC for antibacterial activity against Pseudomonas aeruginosa ATCC 27853 assessed as inhibition of bacterial growth. The series is classed as toxicity, cell-based. The note with it: read-out: Selectivity Index.
Series [3] concerns Escherichia coli. In words: Antibacterial activity against Escherichia coli ATCC 25922 assessed as inhibition of bacterial growth incubated for overnight by broth microdilution method. The class given is functional. A general note: Broth dilution looks for growth in wells or tubes with falling amounts of substance.
Series [4] deals with Klebsiella pneumoniae. In words: Antibacterial activity against Klebsiella pneumoniae ATCC 700603 assessed as inhibition of bacterial growth incubated overnight by broth microdilution method. The series is classed as functional.
For series [5], the system named is Pseudomonas aeruginosa. In words: Antibacterial activity against Pseudomonas aeruginosa ATCC 27853 assessed as inhibition of bacterial growth incubated overnight by broth microdilution method. The series is classed as functional.
Series [6] concerns Staphylococcus aureus. In words: Antibacterial activity against Staphylococcus aureus ATCC 29213 assessed as inhibition of bacterial growth incubated overnight by broth microdilution method. The series is classed as functional.
The subject of series [7] is Pseudomonas aeruginosa. As to the kind of experiment: Bactericidal activity against Pseudomonas aeruginosa PAO1 assessed as bacterial eradication at 8 times of MIC measured at 8 hrs by time-kill kinetics assay relative to control. The class given is functional.
For series [8], the system named is Pseudomonas aeruginosa. In words: Bactericidal activity against Pseudomonas aeruginosa PAO1 assessed as reduction in viable bacteria at 4 times of MIC measured at 8 to 48 hrs by time-kill kinetics assay. The class given is functional, organism-based. The note with it: time 8-48 hrs.
Series [9] relates to Pseudomonas aeruginosa. As to the kind of experiment: Antibiofilm activity in Pseudomonas aeruginosa PAO1 assessed as eradication of preformed biofilm at 256 ug/ml incubated for 24 hr by BacTiter Glo reagent based luminescence analysis. The class given is functional, organism-based. The following applies: dose 256.0 µg/ml.
In series [10] the test system is Pseudomonas aeruginosa. In words: Bactericidal activity against Pseudomonas aeruginosa PAO1 assessed as reduction in bacterial growth at 8 times of MIC measured after 48 hrs by time-kill kinetics assay. The series is classed as functional, organism-based.
The test system of series [11] is Pseudomonas aeruginosa. As to the kind of experiment: Induction of spontaneous resistance development in Pseudomonas aeruginosa PAO1 assessed as frequency of resistance at 2 to 4 times of MIC incubated for 48 hrs by FoR assay. The class given is functional.
Series [12] has as its system Pseudomonas aeruginosa. As to the kind of experiment: Inhibition of biofilm formation in Pseudomonas aeruginosa PAO1 at below MIC incubated for 24 hrs by crystal violet staining based analysis relative to control. The class given is functional.
Series [13] has as its system NIH3T3. As to the kind of experiment: Cytotoxicity against mouse 3T3 cells assessed as reduction in cell viability incubated for 24 hrs by CellTiter-Glo reagent based luminescence assay. The series is classed as toxicity. The note with it: nih3t3, 24 h. For orientation: In ATP-based viability assays light output follows the ATP content of the culture.
A short description of series [14]: Hemolytic activity in human blood assessed as hemolysis at 492 ug/ml incubated for 45 mins by absorbance based plate reader analysis relative to control. The class given is toxicity, tissue-based. The following applies: at 492 µg/mL, read-out: Activity.
In series [15] the test system is Pseudomonas aeruginosa. In words: Antibacterial activity against Pseudomonas aeruginosa PAO1 infected in C57BL/6 mouse wound model assessed as log reduction in colony forming unit on wound bed at 2 % w/v pre-infected with bacteria for 4 hrs followed by topical administration of compounds for 20 hrs and measured 24 hrs post infection. The series is classed as functional.

Series [16] deals with Pseudomonas aeruginosa. In words: Antibiofilm activity against preformed biofilm in Pseudomonas aeruginosa PAO1 assessed as biofilm killing at 128 ug/ml incubated for 24 hrs by BacTiter Glo reagent based luminescence analysis. The series is classed as functional, organism-based. The following applies: dose 128.0 µg/ml.
Series [17] is described as follows: Dissociation constant, pKa of compound at pH 7.4 by potentiometric titration method. The series is classed as physicochemical.
Series [18] deals with Pseudomonas aeruginosa. In words: Antibacterial activity against Pseudomonas aeruginosa PAO1 assessed as inhibition of bacterial growth incubated overnight by broth microdilution method. The series is classed as functional.
Series [19] has as its system Pseudomonas aeruginosa. As to the kind of experiment: Antibacterial activity against Pseudomonas aeruginosa PAO1 infected in C57BL/6 mouse wound model assessed as reduction in bacterial count on wound bed pre-infected with bacteria for 4 hrs followed by topical administration of compounds for 20 hrs and measured 24 hrs post infection. The series is classed as functional, organism-based. The note with it: dose 0.1-2 %.

In series [20] the test system is Pseudomonas aeruginosa. As to the kind of experiment: Bactericidal activity against Pseudomonas aeruginosa PAO1 assessed as reduction in colony forming units at 4 times of MIC incubated for 1 hrs by time-kill kinetics assay relative to control. The class given is functional. More on the design: scale not given: the % may be the effect or the level left.
The test system of series [21] is HEK293. In words: Cytotoxicity against HEK293 cells assessed as reduction in cell viability incubated for 24 hrs by CellTiter-Glo reagent based luminescence assay. The class given is toxicity. The note with it: human, hek293, 24 h.
The subject of series [22] is Pseudomonas aeruginosa. As to the kind of experiment: Bactericidal activity against Pseudomonas aeruginosa PAO1 assessed as log reduction in colony forming units at 4 times of MIC incubated for 1 hrs by time-kill kinetics assay. The class given is functional.
Series [23] deals with Pseudomonas aeruginosa. In words: Induction of resistance development in Pseudomonas aeruginosa PAO1 assessed as fold increase in MIC measured after consecutive passages for 21 days by serial passaging assay relative to day 1 MIC. The class given is functional. The note with it: time 21 day.
For series [24], the system named is Pseudomonas aeruginosa. As to the kind of experiment: Antibacterial activity against Pseudomonas aeruginosa PAO1 infected in C57BL/6 mouse wound model assessed as reduction in bacterial count on wound bed at 2 to 8 % w/v pre-infected with bacteria for 24 hrs followed by topical administration of compounds for 24 hrs. The class given is functional, organism-based. The note with it: dose 2-8 %.

The subject of series [25] is Pseudomonas aeruginosa. In words: Inhibition of biofilm formation in Pseudomonas aeruginosa PAO1 incubated for 24 hrs by crystal violet staining based analysis. The class given is functional.
The test system of series [26] is Pseudomonas aeruginosa. In words: Antibacterial activity against Pseudomonas aeruginosa PAO1 infected in C57BL/6 mouse wound model assessed as log reduction in colony forming unit on wound bed at 0.5 % w/v pre-infected with bacteria for 4 hrs followed by topical administration of compounds for 20 hrs and measured 24 hrs post infection. The class given is functional.

For series [27], the system named is Pseudomonas aeruginosa. In words: Inhibition of biofilm formation in Pseudomonas aeruginosa PAO1 at below MIC incubated for 24 hrs by crystal violet staining based analysis. The series is classed as functional, organism-based.
The subject of series [28] is Pseudomonas aeruginosa. As to the kind of experiment: Antibiofilm activity against preformed biofilm in Pseudomonas aeruginosa PAO1 assessed as reduction in biofilm viability upto 1024 ug/ml incubated for 24 hrs by BacTiter Glo reagent based luminescence analysis. The series is classed as functional, organism-based. The note with it: dose <= 1024.0 µg/ml.

For `CC(=O)O.CC(=O)O.CC(=O)O.CC(=O)O.CCC(=N)N(C)CCCOc1cc(/C=C/c2ccc(/C=C/c3cc(OCCCN(C)C(=N)CC)cc(OCCCN(C)C(=N)CC)c3)cc2)cc(OCCCN(C)C(=N)CC)c1`, in [1], the IC50 (usually the point on the concentration scale where inhibition reaches its midpoint) at 24 h was greater than 1020 µg/mL. The selectivity ratio in [2] was greater than 128. Further, the MIC (as a rule, the smallest concentration in the dilution series that meets the test's criterion for growth inhibition) was 1 µg/mL in [3], 16 µg/mL in [4], 8 µg/mL in series [5] and 1 µg/mL in series [6].

As to `CC(=O)O.CC(=O)O.CC(=O)O.CC(=O)O.CCCN(CCCOc1cc(/C=C/c2ccc(/C=C/c3cc(OCCCN(CCC)C(=N)C4CC4)cc(OCCCN(CCC)C(=N)C4CC4)c3)cc2)cc(OCCCN(CCC)C(=N)C2CC2)c1)C(=N)C1CC1`, the IC50 at 24 h in [1] amounted to 16 µg/mL. The selectivity ratio in series [2] was 0.5. In series [6], the MIC stood at 1 µg/mL.

As to `CC(=O)O.CC(=O)O.CC(=O)O.CC(=O)O.CCC(=N)NCCCOc1cc(/C=C/c2ccc(/C=C/c3cc(OCCCNC(=N)CC)cc(OCCCNC(=N)CC)c3)cc2)cc(OCCCNC(=N)CC)c1`, the IC50 at 24 h in [1] is 1020 µg/mL. Further, the selectivity ratio in [2] came out at 128. Moreover, the MIC in series [3] is 1 µg/mL; in series [4] it was 8 µg/mL; in series [5] it was 8 µg/mL; in series [6] it was 1 µg/mL.

In the case of `CC[C@H]1OC(=O)[C@H](C)[C@@H](O[C@H]2C[C@@](C)(OC)[C@@H](O)[C@H](C)O2)[C@H](C)[C@@H](O[C@@H]2O[C@H](C)C[C@H](N(C)C)[C@H]2O)[C@](C)(O)C[C@@H](C)C(=O)[C@H](C)[C@@H](O)[C@]1(C)O` [ERYTHROMYCIN], in series [6], the MIC was determined as 0.25 µg/mL (≈ 0.341 µM).

Take `CC(=O)O.CC(=O)O.CC(=O)O.CC(=O)O.CCC(=N)N(CCCOc1cc(/C=C/c2ccc(/C=C/c3cc(OCCCN(C(=N)CC)C4CC4)cc(OCCCN(C(=N)CC)C4CC4)c3)cc2)cc(OCCCN(C(=N)CC)C2CC2)c1)C1CC1`: the IC50 at 24 h in series [1] came to 128 µg/mL. Besides, in series [2], the selectivity ratio was 8. The MIC in series [3] worked out at 2 µg/mL; in series [4], 8 µg/mL; in [5], 16 µg/mL; in series [6] it was 1 µg/mL.

As to `CC(=O)O.CC(=O)O.CC(=O)O.CC(=O)O.N=C(NCCCOc1cc(/C=C/c2ccc(/C=C/c3cc(OCCCNC(=N)C4CC4)cc(OCCCNC(=N)C4CC4)c3)cc2)cc(OCCCNC(=N)C2CC2)c1)C1CC1`, the Activity in series [7] was 100%; in series [11] it was <1.3 10^-8No_unit; in series [13], “Non-Toxic”; in series [19], “Dose-Dependent Effect”; in [20] it was 99.9%; in series [21] it was “Non-Toxic”. The result in series [8] was inactive. In addition, the result in series [9], in series [10], in series [16] and in series [24] was Active. For the same molecule, the “inhibition (INH)” value in series [12] is roughly 31%. In addition, the IC50 at 24 h in series [1] was found to be 1020 µg/mL. Moreover, the hemolysis at 0.75 h, 492 ug/ml in series [14] stood at 0.2%. Besides, the “log(activity)” value was found to be 2.8 in [15], 3 in series [22] and 1.5 in [26]. The pKa – broadly, the pH at which an ionisable group is half protonated – in series [17] turned out to be 10. Moreover, the MIC in [18] is 8 µg/mL; in [6], 0.5 µg/mL. Besides, in [23], the “fold change (FC)” value amounted to 4. The selectivity ratio in series [2] came to 512. The MBIC50 in [25] was determined as 1 µg/mL. In series [25], the MBIC90 came out at 4 µg/mL.

Regarding `O=C(O)c1cn(C2CC2)c2cc(N3CCNCC3)c(F)cc2c1=O` [CIPROFLOXACIN], the inhibition result in series [27] was “inactive”. Besides, in series [25], the MBIC50 was determined as 2 µg/mL and the MBIC90 was found to be 2 µg/mL. Further, the outcome in series [28] was inactive.
